Test results taken from US20250382305A1 (PTC THERAPEUTICS, INC., priority 2022, published 2025).

What was measured:
[1] = test system: Total ATXN3 (tATXN3) protein; test: Endogenous Total ATXN3 (tATXN3) Protein Assay (MSD immunoassay of cell lysates); type: cell-based; conditions: average IC50, total ATXN3 protein in cell lysate after 48 h with compound (Table 1)
Summary of the method: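 By electrochemiluminescent MSD sandwich immunoassay (mouse monoclonal capture, rabbit monoclonal and SULFO-TAG anti-rabbit detection), endogenous ATXN3 was quantified in lysates of cells treated 48 h at 37° C at 10,000 cells/well. Treatment used a 7-point 3.16-fold duplicate dilution series, with average IC50 grouped into star categories.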

ATXN3 pre-mRNA = test: RT-qPCR Assay to Quantify Exon 4 Skipping in ATXN3 pre-mRNA in Cells; type: cell-based; conditions: percent exon 4 skipping in ATXN3 pre-mRNA, RT-qPCR of cell lysates; average IC50
Summary of the method: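 IC50 derives from a dose-response fit of percent exon 4 skipping, quantified by RT-qPCR on crude lysates. Compounds tested as 7-point 3.16-fold dilutions in duplicate; cells (10,000/well) were exposed for 24 h at 37 °C before lysis.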

| Compound | IC50 [1] | IC50 (ATXN3 pre-mRNA) |
| --- | --- | --- |
| N[C@@H]1CCCC[C@@H]1c1sc2c(NCc3cccs3)cc(Cl)nc2c1Cl [Compound 14, 2-((1S,2R)-2-aminocyclohexyl)-3,5-dichloro-N-(thiophen-2-ylmethyl)thieno[3,2-b]pyridin-7-amine] | > 1000 nM | > 1000 nM |
| N[C@@H]1CCCCC[C@H]1c1sc2c(NCc3cccs3)cc(Cl)nc2c1Cl [Compound 78, 2-((1R,2R)-2-aminocycloheptyl)-3,5-dichloro-N-(thiophen-2-ylmethyl)thieno[3,2-b]pyridin-7-amine] | > 1000 nM | > 1000 nM |
| N[C@@H]1C[C@@H]2C[C@@H]2C[C@H]1c1sc2c(NCc3cccs3)cc(Cl)nc2c1Br.N[C@H]1C[C@H]2C[C@H]2C[C@@H]1c1sc2c(NCc3cccs3)cc(Cl)nc2c1Br (mixture of isomers) [Compound 290, 2-((1R,3R,4R,6S)-4-aminobicyclo[4.1.0]heptan-3-yl)-3-bromo-5-chloro-N-(thiophen-2-ylmethyl)thieno[3,2-b]pyridin-7-amine and 2-((1S,3S,4S,6R)-4-aminobicyclo[4.1.0]heptan-3-yl)-3-bromo-5-chloro-N-(thiophen-2-ylmethyl)thieno[3,2-b]pyridin-7-amine] | 30 to 300 nM | 30 to 300 nM |
| N[C@@H]1CCC[C@@H]1c1sc2c(NCc3cccs3)cc(Cl)nc2c1Cl [Compound 3, 2-((1S,2R)-2-aminocyclopentyl)-3,5-dichloro-N-(thiophen-2-ylmethyl)thieno[3,2-b]pyridin-7-amine] | > 1000 nM | > 1000 nM |
| N[C@@H]1CCCC[C@H]1c1c(I)c2nc(Cl)nc(NCc3ccco3)c2n1C(F)F [Compound 391, 6-((1R,2R)-2-aminocyclohexyl)-2-chloro-5-(difluoromethyl)-N-(furan-2-ylmethyl)-7-iodo-5H-pyrrolo[3,2-d]pyrimidin-4-amine] | 300 to 1000 nM | 300 to 1000 nM |
| N[C@H]1CC=CC[C@@H]1c1sc2c(NCc3cccs3)cc(Cl)nc2c1C#Cc1ccncc1Cl [Compound 447, 2-((1S,6S)-6-aminocyclohex-3-en-1-yl)-5-chloro-3-((3-chloropyridin-4-yl)ethynyl)-N-(thiophen-2-ylmethyl)thieno[3,2-b]pyridin-7-amine] | 300 to 1000 nM | 300 to 1000 nM |
| Cc1c([C@H]2CCCCCC[C@@H]2N)sc2c(NCc3cccs3)cc(Cl)nc12 [Compound 94, 2-((1S,2S)-2-aminocyclooctyl)-5-chloro-3-methyl-N-(thiophen-2-ylmethyl)thieno[3,2-b]pyridin-7-amine] | 300 to 1000 nM | 30 to 300 nM |
| N[C@@H]1CCCCCC[C@@H]1c1sc2c(NCc3cccs3)cc(Cl)nc2c1Cl [Compound 98, 2-((1S,2R)-2-aminocyclooctyl)-3,5-dichloro-N-(thiophen-2-ylmethyl)thieno[3,2-b]pyridin-7-amine] | > 1000 nM | > 1000 nM |
| N[C@@H]1CC=CC[C@H]1c1sc2c(NCc3ccncc3)cc(Cl)nc2c1Br [Compound 373, 2-((1R,6R)-6-aminocyclohex-3-en-1-yl)-3-bromo-5-chloro-N-(pyridin-4-ylmethyl)thieno[3,2-b]pyridin-7-amine] | 30 to 300 nM | 30 to 300 nM |
| N[C@@H]1CCCC(F)(F)[C@H]1c1sc2c(NCc3ccco3)nc(Cl)nc2c1Br [Compound 412, 6-((1S,6R)-6-amino-2,2-difluorocyclohexyl)-7-bromo-2-chloro-N-(furan-2-ylmethyl)thieno[3,2-d]pyrimidin-4-amine] | 300 to 1000 nM | 300 to 1000 nM |
| (1R,2R,3S)-2-amino-3-(3-bromo-5-chloro-7-((thiophen-2-ylmethyl)amino)thieno[3,2-b]pyridin-2-yl)cyclohexan-1-ol and (1S,2S,3R)-2-amino-3-(3-bromo-5-chloro-7-((thiophen-2-ylmethyl)amino)thieno[3,2-b]pyridin-2-yl)cyclohexan-1-ol [Compound 228] | ≤ 30 nM | ≤ 30 nM |
| 2-((1S,6S)-6-aminocyclohex-3-en-1-yl)-5-chloro-N-(thiophen-2-ylmethyl)thieno[3,2-b]pyridin-7-amine [Compound 448] | > 1000 nM | 30 to 300 nM |
| N[C@@H]1CCCC[C@H]1c1sc2c(NCc3ccco3)nc(Cl)nc2c1Br [Compound 67, 6-((1R,2R)-2-aminocyclohexyl)-7-bromo-2-chloro-N-(furan-2-ylmethyl)thieno[3,2-d]pyrimidin-4-amine] | 300 to 1000 nM | 300 to 1000 nM |

The next lines start with the values.

| IC50 [1] | IC50 (ATXN3 pre-mRNA) | Compound |
| --- | --- | --- |
| 30 to 300 nM | 30 to 300 nM | N[C@@H]1CCCO[C@H]1c1c(Cl)c2nc(Cl)nc(NCc3cccs3)c2n1C(F)F.N[C@H]1CCCO[C@@H]1c1c(Cl)c2nc(Cl)nc(NCc3cccs3)c2n1C(F)F (mixture of isomers) [Compound 346, 6-((2S,3S)-3-aminotetrahydro-2H-pyran-2-yl)-2,7-dichloro-5-(difluoromethyl)-N-(thiophen-2-ylmethyl)-5H-pyrrolo[3,2-d]pyrimidin-4-amine and 6-((2R,3R)-3-aminotetrahydro-2H-pyran-2-yl)-2,7-dichloro-5-(difluoromethyl)-N-(thiophen-2-ylmethyl)-5H-pyrrolo[3,2-d]pyrimidin-4-amine] |
| 30 to 300 nM | 300 to 1000 nM | N[C@@H]1CCCC[C@H]1c1sc2c(NCc3cccs3)cc(Cl)nc2c1-c1ccccc1 [Compound 138] |
| 30 to 300 nM | 30 to 300 nM | 6-((1R,6R)-6-aminocyclohex-3-en-1-yl-2,2,3,4,5,5-d6)-7-bromo-2-chloro-N-(thiophen-2-ylmethyl)thieno[3,2-d]pyrimidin-4-amine [Compound 372] |
| ≤ 30 nM | ≤ 30 nM | N[C@H]1CC=CC[C@@H]1c1sc2c(NCc3ccsc3)cc(Cl)nc2c1Br [Compound 217, 2-((1S,6S)-6-aminocyclohex-3-en-1-yl)-3-bromo-5-chloro-N-(thiophen-3-ylmethyl)thieno[3,2-b]pyridin-7-amine] |
| 30 to 300 nM | 30 to 300 nM | N[C@H]1CCC[C@H]1c1sc2c(NCc3cccs3)cc(Cl)nc2c1Cl [Compound 4, 2-((1R,2S)-2-aminocyclopentyl)-3,5-dichloro-N-(thiophen-2-ylmethyl)thieno[3,2-b]pyridin-7-amine] |
| ≤ 30 nM | ≤ 30 nM | N[C@H]1CC=CC[C@@H]1c1sc2c(NCc3ccncc3F)nc(Cl)nc2c1Cl [Compound 236, 6-((1S,6S)-6-aminocyclohex-3-en-1-yl)-2,7-dichloro-N-((3-fluoropyridin-4-yl)methyl)thieno[3,2-d]pyrimidin-4-amine] |
| 30 to 300 nM | 30 to 300 nM | N[C@H]1CC=CC[C@@H]1c1c(I)c2nc(Cl)nc(NCc3ccccc3)c2n1C(F)F [Compound 348, 6-((1S,6S)-6-aminocyclohex-3-en-1-yl)-N-benzyl-2-chloro-5-(difluoromethyl)-7-iodo-5H-pyrrolo[3,2-d]pyrimidin-4-amine] |
| 30 to 300 nM | 30 to 300 nM | N[C@H]1CCCC[C@@H]1c1sc2c(NCC3=CCCC3)cc(Cl)nc2c1Br [Compound 361, 2-((1S,2S)-2-aminocyclohexyl)-3-bromo-5-chloro-N-(cyclopent-1-en-1-ylmethyl)thieno[3,2-b]pyridin-7-amine] |
| 30 to 300 nM | 30 to 300 nM | N[C@H]1CCCC[C@]1(F)c1sc2c(NCc3cccs3)cc(Cl)nc2c1Cl [Compound 32, 2-((1R,2S)-2-amino-1-fluorocyclohexyl)-3,5-dichloro-N-(thiophen-2-ylmethyl)thieno[3,2-b]pyridin-7-amine] |
| ≤ 30 nM | ≤ 30 nM | [2H]C1=C([2H])C([2H])([2H])[C@H](c2sc3c(NCc4ccco4)nc(Cl)nc3c2C)[C@@H](N)C1([2H])[2H] [Compound 187, 6-((1S,6S)-6-aminocyclohex-3-en-1-yl-2,2,3,4,5,5-d6)-2-chloro-N-(furan-2-ylmethyl)-7-methylthieno[3,2-d]pyrimidin-4-amine] |
| 30 to 300 nM | 30 to 300 nM | C/C=C/CNc1cc(Cl)nc2c(Cl)c([C@H]3CC=CC[C@@H]3N)sc12 [Compound 302, 2-((1S,6S)-6-aminocyclohex-3-en-1-yl)-N-((E)-but-2-en-1-yl)-3,5-dichlorothieno[3,2-b]pyridin-7-amine] |
| 30 to 300 nM | ≤ 30 nM | N[C@@H]1CCCO[C@H]1c1c(Cl)c2nc(Cl)nc(NCc3cccs3)c2n1C(F)F [Compound 423, 6-((2R,3R)-3-aminotetrahydro-2H-pyran-2-yl)-2,7-dichloro-5-(difluoromethyl)-N-(thiophen-2-ylmethyl)-5H-pyrrolo[3,2-d]pyrimidin-4-amine] |
| 30 to 300 nM | 30 to 300 nM | Cc1c([C@H]2CCC[C@@H]2N)sc2c(NCc3cccs3)cc(Cl)nc12 [Compound 6, 2-((1S,2S)-2-aminocyclopentyl)-5-chloro-3-methyl-N-(thiophen-2-ylmethyl)thieno[3,2-b]pyridin-7-amine] |
| 30 to 300 nM | 30 to 300 nM | N[C@@H]1CCCC[C@H]1c1sc2c(NCc3ccncc3)cc(Cl)nc2c1Br [Compound 432, 2-((1R,2R)-2-aminocyclohexyl)-3-bromo-5-chloro-N-(pyridin-4-ylmethyl)thieno[3,2-b]pyridin-7-amine] |
| ≤ 30 nM | ≤ 30 nM | C#Cc1c([C@H]2CCCC[C@@H]2N)sc2c(NCc3ccccc3)cc(Cl)nc12 [Compound 210, 2-((1S,2S)-2-aminocyclohexyl)-N-benzyl-5-chloro-3-ethynylthieno[3,2-b]pyridin-7-amine] |
| ≤ 30 nM | ≤ 30 nM | CC#CCNc1cc(Cl)nc2c(I)c([C@H]3CC=CC[C@@H]3N)sc12 [Compound 202, 2-((1S,6S)-6-aminocyclohex-3-en-1-yl)-N-(but-2-yn-1-yl)-5-chloro-3-iodothieno[3,2-b]pyridin-7-amine] |
